Legend:
[1] = tested on: 293-EBNA cells
[2] = tested on: 293tat cells; experiment: Viability of 293tat cells, Alamar Blue; type: cell-based, human
Procedure: 293tat cells, a cell line stably transfected with the expression plasmids pHIV.AP and pHIV.tat, were plated onto 96-well microtiter plates at 2000 cells per well. The media were changed the next day and CT2576 was added at the indicated concentrations to the fresh media with or without TNF-α (20 ng/ml). 2 μl of medium from each well was used for AP assay 24 hr later. After culture media were withdrawn for AP assay, cytotoxicity was measured for the same cell cultures using an indicator dye, Alamar Blue™, that would change color in response to the reduction potential of cell medium due to cell growth. The left y-axis refers to the absorbance value of the reduced form of Alamar Blue™ at 570 nm with the background absorbance at 600 nm from the oxidized form of Alamar Blue™ subtracted. Each data point represents the mean of triplicate samples with error bar indicating the standard deviation of the mean.
The effect of CT2576 on HIV promoter activity in 293tat cells, with the HIV.AP construct cotransfected with pHIV.tat, is shown in FIG. 15. CT2576 inhibited AP reporter gene expression by 50% with an inhibition constant (IC50) in the range of 10 μM with or without TNF-α induction. The inhibition of AP expression is the result of two events: a decrease in AP expression and a decrease in tat expression and therefore lower tat protein levels for transactivation. […]

[3] = tested on: NFκB; experiment: NFκB activation in 293tat cells, electrophoretic mobility shift assay; type: cell-based, human; conditions: CT2576 12 μM, TNF-α 40 ng/ml or IL-1β 1 ng/ml
Procedure: Nuclear extracts (A) from 293tat cells were tested by EMSA for activation of NFκB. A radiolabeled 40-mer covering the NFκB sequences in the HIV promoter was used as a probe. Cells were incubated with CT2576 at 12 μM, human TNF-α at 40 ng/ml or IL-1β at 1 ng/ml, or pre-incubated for 30 min. with CT2576 and then stimulated with TNF-α or IL-1β for 18 hr prior to making extracts. RNA was extracted from 293tat cells (B) after treatment with CT2576 without or with TNF-α or IL-1β for 18 hr. Northern blots analysis were performed using probes derived from AP cDNA and G3PDH cDNA as a control for normalization of mRNA level. AP activity was determined in cell supernatants from the various samples.
NFκB binding activity in nuclear extracts (Dignam et al., Nucleic Acids Res. 11:1475-1489, 1983) of cells was measured by electrophoretic mobility-shift assay (EMSA) (Carthew et al., Cell 43:439-448, 1985) using 5'-labeled double-stranded synthetic DNA with two NF-κB motifs. Northern blot analysis was performed with total RNA run on 1% agarose/formaldehyde gel and probed with ^32 P-labeled cDNA of AP and glyceraldehyde-3-phosphate dehydrogenase (G3PDH).

Compound: CCCCCCCCNCC(O)CCCCCCCCCN1C(=O)CCN(C)C1=O (stereo not shown) [CT1829, 3-(11-octylamino-10-hydroxyundecyl)-1-methyldihydrouracil]
- effect on cell viability / cytotoxicity [1]: minimal cytotoxic effects

Compound: CCCCCCCCNCC(O)CCCCCCCCCn1c(=O)c2c(ncn2C)n(C)c1=O (stereo not shown) [CT2576, 1-(11-octylamino-10-hydroxyundecyl)-3,7-dimethylxanthine]
- cytotoxic concentration (not cytotoxic at concentrations up to), 293tat cells ([2]; Alamar Blue): > 32 µM
- cytotoxic effect, 293tat cells ([2]; in words): minimal cytotoxic effect
- activation of NFκB [3]: did not inhibit TNF-α dependent activation of NFκB

— patent US5985926A, “Method for inhibiting intracellular viral replication” (Cell Therapeutics, Inc., priority 1997, dated 1999)
